Laboratory results as given in patent publication US20090054493A1, “THIAZOLE DERIVATIVES AS PPAR DELTA LIGANDS AND THEIR MANUFACTURING PROCESS” (priority 2005, published 2009).

Assays:
Type in all cases: cell-based
[1] = molecular target: T1, PPARα (Homo sapiens, UniProt Q07869); assay: Transfection assay (luciferase reporter) in CV-1 cells, PPARα; details: full-length PPAR plasmid, luciferase normalized with β-galactosidase
T1 construct: full-length PPARs plasmid DNA; expressed in transfected cells; host or cells: CV-1 cells
T1 sequence (Q07869 1-468): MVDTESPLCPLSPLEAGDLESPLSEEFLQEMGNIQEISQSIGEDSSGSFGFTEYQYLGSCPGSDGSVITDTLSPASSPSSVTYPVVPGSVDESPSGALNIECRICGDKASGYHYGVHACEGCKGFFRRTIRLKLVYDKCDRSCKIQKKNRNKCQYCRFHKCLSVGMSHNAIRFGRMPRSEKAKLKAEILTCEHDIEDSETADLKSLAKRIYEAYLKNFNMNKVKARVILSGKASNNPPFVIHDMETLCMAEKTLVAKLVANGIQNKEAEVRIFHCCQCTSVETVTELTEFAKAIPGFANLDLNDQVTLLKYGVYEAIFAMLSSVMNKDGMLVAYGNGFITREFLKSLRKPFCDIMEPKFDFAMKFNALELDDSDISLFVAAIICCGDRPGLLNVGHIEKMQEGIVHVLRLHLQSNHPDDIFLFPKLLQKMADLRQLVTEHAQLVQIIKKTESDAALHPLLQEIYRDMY
Procedure: (§1) The compounds prepared in Examples were tested for PPARδ activity by a transfection assay. In addition, the compounds were tested for selectivity for PPARα and PPARγ, the subtypes of PPARs, and also tested for toxicity by a MTT assay.
(§2) A transfection assay was performed using CV-1 cells. The culture of the cells was performed using a DMEM medium (10% FBS, DBS (delipidated) and 1% penicillin/streptomycin) on a 96-well plate in a 5% carbon dioxide-containing incubator at 37° C. The test was performed in four steps consisting of cell inoculation, transfection, treatment of the compounds, and analysis of results. Specifically, CV-1 cells were inoculated onto a 96-well plate at a concentration of 5,000 cells/well, and after 24 hours, the cells were transfected. In the cell transfection, full-length PPARs plasmid DNA, reporter DNA that has luciferase activity and thus allows the identification of PPARs, and β-galactosidase DNA that provides the information of transfection efficiency, were used as transfection reagents. Each of the compounds developed in the present invention was dissolved in dimethylsulfoxide (DMSO) and transfected into the cells at various concentrations using media. The cells were cultured in an incubator for 24 and then lysed with lysis buffer. The lysed cells were measured for luciferase and β-galactosidase activities using a luminometer and a microplate reader. The measured luciferase values were normalized with the β-galactosidase values and graphed. From the graph, EC50 values were determined.

[2] = molecular target: T2, PPARγ (Homo sapiens, UniProt P37231); assay: Transfection assay (luciferase reporter) in CV-1 cells, PPARγ; details: full-length PPAR plasmid, luciferase normalized with β-galactosidase
T2 construct: full-length PPARs plasmid DNA; expressed in transfected cells; host or cells: CV-1 cells
T2 sequence (P37231 1-505): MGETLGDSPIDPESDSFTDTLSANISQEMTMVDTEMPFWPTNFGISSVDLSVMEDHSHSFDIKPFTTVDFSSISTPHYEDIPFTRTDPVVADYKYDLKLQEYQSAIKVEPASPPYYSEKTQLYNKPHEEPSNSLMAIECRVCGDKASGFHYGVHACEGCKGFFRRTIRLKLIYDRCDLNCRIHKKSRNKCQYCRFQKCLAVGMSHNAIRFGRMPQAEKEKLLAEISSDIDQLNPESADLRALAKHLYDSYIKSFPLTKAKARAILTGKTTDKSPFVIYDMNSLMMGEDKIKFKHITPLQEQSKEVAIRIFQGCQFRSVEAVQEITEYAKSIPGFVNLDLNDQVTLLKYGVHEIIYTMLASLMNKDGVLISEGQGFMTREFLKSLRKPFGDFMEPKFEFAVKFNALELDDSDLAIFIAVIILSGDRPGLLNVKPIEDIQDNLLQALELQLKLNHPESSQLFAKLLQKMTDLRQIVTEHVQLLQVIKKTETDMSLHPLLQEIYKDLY
Procedure: as §1
as §2, with “The test was performed in four steps consisting of cell inoculation, transfection, treatment of the compounds, and analysis of results.” left out

[3] = MTT assay, cytotoxicity; details: African green monkey, CV-1 cells, read-out: LC50 Cytotoxicity
Procedure: The compounds of Examples 47-97 according to the present invention were tested for cytotoxicity using a MTT assay. MTT is a water-soluble yellow substance, but if it is introduced into living cells, it will be degenerated into a water-insoluble purple crystal due to dehydrogenase contained in mitochondria. If this substance is dissolved in dimethylsulfoxide and then measured for absorbance at 550 nm, cytotoxicity can be assayed. The test method is as follows.
CV-1 cells were first inoculated onto a 96-well plate at a concentration of 5,000 cells/well. The inoculated cells were cultured in a 5% carbon dioxide-containing humidified incubator at 37° C. for 24 hours, and then treated with the inventive compounds at various concentrations. After 24 hours of culture, a MTT reagent was added to the cultured cells. After 15 minutes of culture, the resulting purple crystal was dissolved in dimethylsulfoxide and then measured for absorbance using a microplate reader. From the measured absorbance, cytotoxicity was assayed.

[4] = molecular target: T3, PPARδ (Homo sapiens, UniProt Q03181); assay: Transfection assay (luciferase reporter) in CV-1 cells, PPARδ; parameters: full-length PPARs plasmid DNA; expressed in transfected cells; host or cells: CV-1 cells; details: full-length PPAR plasmid, luciferase normalized with β-galactosidase
T3 sequence (Q03181 1-441): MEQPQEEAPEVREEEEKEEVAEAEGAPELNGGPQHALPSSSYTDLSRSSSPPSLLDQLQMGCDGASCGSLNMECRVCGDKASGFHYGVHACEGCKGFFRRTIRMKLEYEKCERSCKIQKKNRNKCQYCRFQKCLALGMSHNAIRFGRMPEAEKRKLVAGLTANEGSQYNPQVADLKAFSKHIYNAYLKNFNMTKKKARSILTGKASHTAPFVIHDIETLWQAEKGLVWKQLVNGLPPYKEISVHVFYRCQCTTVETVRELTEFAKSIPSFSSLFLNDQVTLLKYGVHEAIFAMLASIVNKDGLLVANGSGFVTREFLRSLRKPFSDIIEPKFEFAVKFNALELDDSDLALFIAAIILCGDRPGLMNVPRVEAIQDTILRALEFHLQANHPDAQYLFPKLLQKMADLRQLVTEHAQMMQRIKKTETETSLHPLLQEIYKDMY
Procedure: as §1
as §2, with “The test was performed in four steps consisting of cell inoculation, transfection, treatment of the compounds, and analysis of results.” left out

For `Cc1cc(SC(Cc2ccc(F)cc2F)c2sc(-c3ccc(C(F)(F)F)c(F)c3)nc2C)ccc1OCC(=O)O` (stereo not drawn) [Example 96, 2-[4-[1-[2-[3-fluoro-4-(trifluoromethyl)phenyl]-4-methylthiazol-5-yl]-2-(2,4-difluorophenyl)ethylthio]-2-methylphenoxy]acetic acid], the EC50 [1] was greater than 10000 nM, the “EC50 PPARγ” value [2] was “ia” and the CC50 at 24 h [3] was greater than 10000 nM. For the same compound, the EC50 [4] was 4.8 nM.
With `Cc1cc(SC(Cc2cc(F)c(F)c(F)c2)c2sc(-c3ccc(C(F)(F)F)c(F)c3)nc2C)ccc1OCC(=O)O` (stereo not drawn) [Example 92, 2-[4-[1-[2-[3-fluoro-4-(trifluoromethyl)phenyl]-4-methylthiazol-5-yl]-2-(3,4,5-trifluorophenyl)ethylthio]-2-methylphenoxy]acetic acid] the “EC50 PPARα” value [1] was “ia”, the “EC50 PPARγ” value [2] was “ia” and the CC50 at 24 h [3] was greater than 30000 nM. It also gave an EC50 [4] of 21.6 nM.
For `Cc1cc(SC(Cc2c(Cl)cccc2Cl)c2sc(-c3ccc(C(F)(F)F)cc3)nc2C)ccc1OCC(=O)O` (stereo not drawn) [Example 84, 2-[4-[2-(2,6-dichlorophenyl)-1-[2-[4-(trifluoromethyl)phenyl]-4-methylthiazol-5-yl]ethylthio]-2-methylphenoxy]acetic acid], the “EC50 PPARα” value [1] was “ia”, the “EC50 PPARγ” value [2] was “ia” and the CC50 at 24 h [3] was greater than 100000 nM. The EC50 [4] was 2.1 nM.
In the case of `Cc1cc(SC(Cc2c(F)cccc2Cl)c2sc(-c3ccc(C(F)(F)F)c(F)c3)nc2C)ccc1OCC(=O)O` (stereo not drawn) [Example 91, 2-[4-[2-(2-chloro-6-fluorophenyl)-1-[2-[3-fluoro-4-(trifluoromethyl)phenyl]-4-methylthiazol-5-yl]ethylthio]-2-methylphenoxy]acetic acid], the “EC50 PPARα” value [1] is reported as “ia”, the “EC50 PPARγ” value [2] is reported as “ia” and the CC50 at 24 h [3] is reported as greater than 10000 nM. It also gave an EC50 [4] of 3.9 nM.
For `COc1cc(CC(Sc2ccc(OCC(=O)O)c(C)c2)c2sc(-c3ccc(C(F)(F)F)cc3)nc2C)cc(OC)c1` (stereo not drawn) [Example 79, 2-[4-[1-[2-[4-(trifluoromethyl)phenyl]-4-methylthiazol-5-yl]-2-(3,5-dimethoxyphenyl)ethylthio]-2-methylphenoxy]acetic acid], the “EC50 PPARα” value [1] was “ia”, the “EC50 PPARγ” value [2] was “ia” and the CC50 at 24 h [3] was greater than 100000 nM. For the same compound, the EC50 [4] was 46.4 nM.
With `Cc1cc(SC(Cc2c(F)cccc2Cl)c2sc(-c3ccc(C(F)(F)F)cc3)nc2C)ccc1OCC(=O)O` (stereo not drawn) [Example 75, 2-[4-[2-(2-chloro-6-fluorophenyl)-1-[2-[4-(trifluoromethyl)phenyl]-4-methylthiazol-5-yl]ethylthio]-2-methylphenoxy]acetic acid] the “EC50 PPARα” value [1] was “ia”, the “EC50 PPARγ” value [2] was “ia” and the CC50 at 24 h [3] was greater than 100000 nM. It also gave an EC50 [4] of 2.1 nM.
For `Cc1cc(SC(Cc2ccc(C#N)cc2)c2sc(-c3ccc(C(F)(F)F)cc3)nc2C)ccc1OCC(=O)O` (stereo not drawn) [Example 76, 2-[4-[2-(4-cyanophenyl)-1-[2-[4-(trifluoromethyl)phenyl]-4-methylthiazol-5-yl]ethylthio]-2-methylphenoxy]acetic acid], the “EC50 PPARα” value [1] was “ia”, the “EC50 PPARγ” value [2] was “ia” and the CC50 at 24 h [3] was greater than 100000 nM. For the same compound, the EC50 [4] was 22.1 nM.
In the case of `Cc1cc(SC(CCCCCc2ccccc2)c2sc(-c3ccc(C(F)(F)F)cc3)nc2C)ccc1OCC(=O)O` (stereo not drawn) [Example 72, 2-[4-[1-[2-[4-(trifluoromethyl)phenyl]-4-methylthiazol-5-yl]-6-phenylhexylthio]-2-methylphenoxy]acetic acid], the “EC50 PPARα” value [1] is reported as “ia”, the “EC50 PPARγ” value [2] is reported as “ia” and the CC50 at 24 h [3] is reported as 92000 nM. It also gave an EC50 [4] of 11.5 nM.
For `Cc1cc(SC(Cc2c(F)cccc2C(F)(F)F)c2sc(-c3ccc(C(F)(F)F)c(F)c3)nc2C)ccc1OCC(=O)O` (stereo not drawn) [Example 93, 2-[4-[1-[2-[3-fluoro-4-(trifluoromethyl)phenyl]-4-methylthiazol-5-yl]-2-(2-fluoro-6-(trifluoromethyl)phenyl)ethylthio]-2-methylphenoxy]acetic acid], the “EC50 PPARα” value [1] was “ia”, the “EC50 PPARγ” value [2] was “ia” and the CC50 at 24 h [3] was greater than 10000 nM. It also gave an EC50 [4] of 2.6 nM.
With `Cc1cc(SC(CCc2ccccc2)c2sc(-c3ccc(C(F)(F)F)cc3)nc2C)ccc1OCC(=O)O` (stereo not drawn) [Example 68, 2-[4-[1-[2-[4-(trifluoromethyl)phenyl]-4-methylthiazol-5-yl]-3-phenylpropylthio]-2-methylphenoxy]acetic acid] the “EC50 PPARα” value [1] was “ia”, the “EC50 PPARγ” value [2] was “ia” and the CC50 at 24 h [3] was greater than 100000 nM. It also gave an EC50 [4] of 2.7 nM.
Work on `Cc1cc(SC(Cc2c(F)cccc2F)c2sc(-c3ccc(C(F)(F)F)cc3)nc2C)ccc1OCC(=O)O` (stereo not drawn) [Example 83, 2-[4-[1-[2-[4-(trifluoromethyl)phenyl]-4-methylthiazol-5-yl]-2-(2,6-difluorophenyl)ethylthio]-2-methylphenoxy]acetic acid] yielded an EC50 [1] greater than 100000 nM, an EC50 [2] greater than 10000 nM and a CC50 at 24 h [3] greater than 100000 nM. It also gave an EC50 [4] of 2.6 nM.
In the case of `Cc1cc(SC(Cc2ccc(C(F)(F)F)cc2)c2sc(-c3ccc(C(F)(F)F)cc3)nc2C)ccc1OCC(=O)O` (stereo not drawn) [Example 78, 2-[4-[2-[4-(trifluoromethyl)phenyl]-1-[2-[4-(trifluoromethyl)phenyl]-4-methylthiazol-5-yl]ethylthio]-2-methylphenoxy]acetic acid], the “EC50 PPARα” value [1] is reported as “ia”, the “EC50 PPARγ” value [2] is reported as “ia” and the CC50 at 24 h [3] is reported as greater than 100000 nM. The EC50 [4] was 13.3 nM.
